What was measured:
[1] = system: Type II collagen arthritis; assay: Type II collagen arthritis mouse model; format: in vivo; conditions: DBA/1 mice, some / other components/aspects of the arthritis, Example 7
Protocol: The study uses a mouse model of inflammatory disease that occurs in response to an antigenic challenge with Type II collagen according to method described in Nature, 283, 666-668 […]. DBA/1 mice are immunized with a suspension of fetal bovine Type II collagen (1 mg/ml) prepared in complete Freund's adjuvant. The primary injection is given using 0.1 ml of the collagen emulsion giving a total of 0.1 mg of Type II collagen per mouse. The animals are given a booster injection of Type II collagen (100 μg in 0.01M acetic acid) on day 21 by intraperitoneal injection.
The effect of methotrexate and test compounds racemic PDX, PDX-10a and PDX-10b on the extent of inflammation is determined by visual observation and by direct analysis of paw swelling using caliper measurements.

[2] = Pharmacokinetics in dog (PDX-T-07054-D); format: in vivo; conditions: for clearance / Vd / half-life: dog, plasma, 0.7 mg/kg; for half-life: read-out: t1/2 term
Protocol: (§1) Bioanalytical methods were developed and validated for quantitation of the 2 pralatrexate C10 diastereomers (PDX-10a and PDX-10b) in human, rat and dog plasma and urine. The basic bioanalytical method involves extraction of PDX-10a and PDX-10b from the matrix utilizing C18 solid-phase extraction (SPE) cartridges followed by derivatization (methylation with acetyl chloride) of the diastereomers for separation detection. The derivatized extracts are injected on a chiral high-performance liquid chromatography (HPLC) column for quantitation of each diastereomer by liquid chromatography-tandem mass spectrometry (LC/MS/MS). The lower limit of quantitation (LLOQ) for both diastereomers in plasma and urine matrices was 0.5 ng/mL. […]

cancer cell lines = assay: In vitro cytotoxicity in additional solid and heme cancer cell lines; format: cell-based; conditions: some / other cell lines (T-cell lymphoma, multiple myeloma, others); Example 5
Protocol: Additional cancer cell lines can be tested in accordance with the methods outlined in Example 3. Cancer cell lines for T-cell lymphoma, multiple myeloma, hematologic malignancies, head and neck cancer, cancer of the gastrointestinal tract, ovarian cancer, and osteosarcoma are tested with PDX-10a and PDX-10b.

[3] = Pharmacokinetics in rat (PDX-T-07034-R); format: in vivo; conditions: plasma, 5 mg/kg; for half-life: read-out: t1/2 term
Protocol: as §1

[4] = system: MDA-MB-435 (melanoma) human tumor cell line; assay: MTS growth inhibition assay, MDA-MB-435; format: cell-based; conditions: 3 h treatment, 72 h recovery
Protocol: The agents PDX, PDX-10a, PDX-10b, were evaluated for growth inhibitory activity against, MDA-MB-435, SKBR-3 and NCI-H460 human tumor cell lines. Growth inhibition was measured by MTS assay following three hours of continuous treatment and a seventy-two hour recovery incubation. The purpose of these studies was to determine the cytotoxic activity of the compounds in the tumor cell lines studies studied.
Materials and Methods. Preparation of PDX-10a and PDX-10b was performed as discussed in Examples 1-2. The PDX compounds were diluted in dimethylsulfoxide (DMSO) at a concentration of 20 mM. From this solution a stock solution of 2 mM was made by dilution with phosphate-buffered saline (PBS). This 2 mM stock solution in 10% DMSO/90% PBS was used to make 2× concentrations of the titration series in cell growth medium which was added to the cell cultures in a 1:1 ratio to make 1× concentrations. Cell lines—The human tumor cell lines: MDA-MB-435 (melanoma), SKBR-3 (breast cancer) and NCI-H460 (lung cancer) were cultured in RPMI medium (RPMI; Nova Tech, Grand Island, N.Y.) containing ten percent dialyzed fetal bovine serum (FBS; Nova Tech). Once cells reached seventy percent confluency, they were trypsinized and resuspended in an alternate media (RPMI containing five percent dialyzed FBS (Hyclone, Logan, Utah). One day prior to treatment (Day 0), cultures were suspended at a concentration of 1−7.5×10^4 cell/ml and 100 μl aliquots were plated into each well of a 96-well microtiter plate at a final concentration of 1×10^3-7.5×10^3 cells/well. Cells were incubated for 24 hours at 37° C. prior to exposure with agents.
Test Agents—racemic PDX, and individual diastereomers PDX-10a and PDX-10b were prepared as described above. Cells were treated 24 hours after plating (Day 1) with vehicle (media) alone or the above test agents for three hours at concentrations between 3 μM and 10 μM.
Single Agent Pulse Studies—Treatment with test agents or standard agents (controls) was initiated 24 hours after plating cells (Day 1). Cells were incubated at 37° C. with each of the test agents or a “chemococktail” (positive control) consisting of 215 μM Etoposide, 20 μM Taxol, 38.5 nM Velcade at final concentration for three hours. Following treatment, drug was removed, growth media added, and cells incubated at 37° C. for 72 hours. Following incubation, the viable cell number was quantified by the MTS assay described below. Experiments were repeated twice at the same concentrations. Results from these studies were used to calculate an IC50 value (concentration of drug that inhibits cell growth by 50% of the vehicle) for each compound. IC50 values were generated with Prizm software.
MTS Assay—Cell viability was determined using the MTS assay. This colorimetric procedure measures conversion of the MTS reagent (a tetrazolium salt) to formazan by living cells. Formazan production was quantified by spectrophotometric measurement at 490 nm and is proportional to viable cell number. For these studies, cells were cultured and treated as listed above. At the end of the treatment, 20 μl MTS tetrazolium (1.9 mg/ml in PBS, pH 6.0) was added to the cells for 1 hour at 37° C. Absorbance (OD) values were measured using a Dynex HD microplate reader at a single wavelength of 490 nm.
Data Analysis—Data from each experiment was collected and expressed as OD490 versus the log10 of the test agent concentration. […]

[5] = both sexes, Day 1, 0.7 mg/kg, range of the mean for males and females and for PDX-10a and PDX-10b, read-out: CLtot
[6] = both sexes, Day 1, 0.7 mg/kg, range of the mean for males and females and for PDX-10a and PDX-10b, read-out: Vdss
[7] = both sexes, Day 1, 0.7 mg/kg, range of the mean for males and females and for PDX-10a and PDX-10b
[8] = both sexes, Day 1, calculated using average BW 8.5 kg, read-out: Vdss relative to BW
[9] = both sexes, Day 281, 0.7 mg/kg, range of the mean for males and females and for PDX-10a and PDX-10b, read-out: CLtot
[10] = both sexes, Day 281, 0.7 mg/kg, range of the mean for males and females and for PDX-10a and PDX-10b, read-out: Vdss
[11] = both sexes, Day 281, 0.7 mg/kg, range of the mean for males and females and for PDX-10a and PDX-10b
[12] = Day 1, calculated using average BW 8.5 kg, read-out: CLtot relative to BW
[13] = both sexes, Day 1, 5 mg/kg, range of the mean for males and females and for PDX-10a and PDX-10b, read-out: CLtot
[14] = both sexes, Day 1, 5 mg/kg, range of the mean for males and females and for PDX-10a and PDX-10b, read-out: Vdss
[15] = both sexes, Day 1, 5 mg/kg, range of the mean for males and females and for PDX-10a and PDX-10b
[16] = both sexes, Day 1, calculated using average BW 0.35 kg, read-out: Vdss relative to BW
[17] = both sexes, Day 85, 5 mg/kg, range of the mean for males and females and for PDX-10a and PDX-10b, read-out: CLtot
[18] = both sexes, Day 85, 5 mg/kg, range of the mean for males and females and for PDX-10a and PDX-10b, read-out: Vdss
[19] = both sexes, Day 85, 5 mg/kg, range of the mean for males and females and for PDX-10a and PDX-10b
[20] = Day 1, calculated using average BW 0.35 kg, read-out: CLtot relative to BW
[21] = Homo sapiens, MDA-MB-435, MDA-MB-435 (melanoma)

Row | clearance [2, 5] | Vd [2, 6] | half-life [2, 7] | Vd [2, 8] | clearance [2, 9] | Vd [2, 10] | half-life [2, 11] | clearance [2, 12] | clearance [3, 13] | Vd [3, 14] | half-life [3, 15] | Vd [3, 16] | clearance [3, 17] | Vd [3, 18] | half-life [3, 19] | clearance [3, 20] | IC50 [4, 21] | Compound | antiarthritic activity relative to racemate and other diastereomer [1] | cytotoxic activity relative to racemate and other diastereomer (cancer cell lines) | also measured
1 | 34 to 81 mL/min | 8 to 16 L | 4.4 to 4.9 h | 0.9 to 1.9 L/kg | 58 to 95 mL/min | 15 to 24 L | 4.7 to 5.5 h | 4 to 10 mL/min/kg | 2.9 to 4 mL/min | 0.07 to 0.89 L | 1 to 20 h | 0.2 to 2.5 L/kg | 3.4 to 3.9 mL/min | 0.15 to 0.18 L | 1 to 6 h | ~10 mL/min/kg | 0.121 µM | C#CC[C@H](Cc1cnc2nc(N)nc(N)c2n1)c1ccc(C(=O)N[C@@H](CCC(=O)O)C(=O)O)cc1 (single isomer, unassigned) [PDX-10b] | increased activity relative to racemic PDX and/or PDX-10a | increased activity relative to racemic PDX and/or PDX-10a | higher clearance of PDX-10b compared with PDX-10a ([2]; dogs): 2 fold; IC50 ([4]; MDA-MB-435 (melanoma)): 0.121 µM
2 | 34 to 81 mL/min | 8 to 16 L | 4.4 to 4.9 h | 0.9 to 1.9 L/kg | 58 to 95 mL/min | 15 to 24 L | 4.7 to 5.5 h | 4 to 10 mL/min/kg | 2.9 to 4 mL/min | 0.07 to 0.89 L | 1 to 20 h | 0.2 to 2.5 L/kg | 3.4 to 3.9 mL/min | 0.15 to 0.18 L | 1 to 6 h | ~10 mL/min/kg | 0.1 µM | C#CC[C@@H](Cc1cnc2nc(N)nc(N)c2n1)c1ccc(C(=O)N[C@@H](CCC(=O)O)C(=O)O)cc1 (single isomer, unassigned) [PDX-10a] | increased activity relative to racemic PDX and/or PDX-10b | increased activity relative to racemic PDX and/or PDX-10b | –

From patent US8835433B2, “Optically pure diastereomers of 10-Propargyl-10-deazaaminopterin and methods of using same for the treatment of cancer” (Allos Therapeutics, Inc., priority 2010, dated 2014)
